GI50 data for twelve compounds are collected here from US20220306659A1, “COMPOUND INHIBITING AND INDUCING DEGRADATION OF EGFR AND ALK” (BEIJING TIDE PHARMACEUTICAL CO., LTD., priority 2019, published 2022).

Format in all cases: cell-based
Assay [1] addresses Ba/F3(EGFR^Del19/T790M/C797S) cells (Homo sapiens, UniProt P00533, DEL746-750/T790M/C797S, cells depend on it). The assay can be described thus: Assay of activity on Ba/F3 cells (CTG, 72 h). As to conditions: read-out: IC50 (nM) Ba/F3 (EGFR^Del19/T790M/C797S). The procedure, abridged: (§1)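 Ba/F3 cells dependent on each EGFR triple mutant were exposed to 3-fold compound dilutions for 72 h at 37° C, 5% CO2, with CellTiter-Glo luminescence as the read-out.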

Assay [2] addresses Ba/F3(EGFR^L858R/T790M/C797S) cells (Homo sapiens, UniProt P00533, T790M/C797S/L858R, cells depend on it). The assay can be described thus: Assay of activity on Ba/F3 cells (CTG, 72 h). The note with it: read-out: IC50 (nM) Ba/F3 (EGFR^L858R/T790M/C797S). The procedure, abridged: as §1
Another assay deals with T1, Ba/F3(EML4-ALK) cells (Homo sapiens, UniProt Q9UM73).
T1 construct: fused on or other part: Q9HC35 (Echinoderm microtubule-associated protein-like 4)
The assay can be described thus: Assay of activity on Ba/F3(EML4-ALK) cells (CTG, 72 h). As to conditions: read-out: IC50 (nM) Ba/F3(EML4-ALK). On the procedure:
Assay of activity on Ba/F3(EML4-ALK) cells
(1) Ba/F3(EML4-ALK) cells were cultured according to the requirements of ATCC, incubated in an incubator at 37° C. and 5% CO2, and analyzed by index; cells with viability of >90% can be used in the assay, and cells were seeded in a 384-well plate (PerkinElmer, 6007680) with 700 cells/well, 30 μl/well.
(2) A compound stock solution was prepared, and diluted 3× to obtain a compound dilution; 30 nL of the serial dilution was added to a 384-well plate (784075, Greiner) by Echo 550, and cells were incubated in an incubator at 37° C. and 5% CO2 for 72 h.
(3) 30 μL of CTG was added to each well, and the 384-well plate was shaken on a Plate shaker (QILINBEIER, QB-9002); the 384-well plate was incubated in the dark at 37° C. and 5% CO2 for 30 min, and the chemiluminescence value was read by Envision (PerkinElmer, EnVision 2104).
The percent inhibition rate (% inhibition) was calculated by the formula below
LUMcmpd: Luminescence value of assay compound.
LUMpositive: Average LUM value of positive drug at a concentration of 10 μM.
LUM^vehicle: Average LUM value of negative control group without drug treatment.
The nonlinear regression curve (dose response-variable slope) between the value of inhibition rate (%) and the logarithm of compound concentration was fitted with graphpad prism 8.0, the effect dose curve of compound was drawn, and the IC50 value was calculated.
Y=Bottom+(Top−Bottom)/(1+10^((LogIC50−X)*HillSlope))
X-axis: logarithm of compound concentration; Y axis: inhibition rate (% inhibition).

Structures are written as SMILES.

T1 sequence (Q9UM73 whole entry, change not shown, the tested form may be a part): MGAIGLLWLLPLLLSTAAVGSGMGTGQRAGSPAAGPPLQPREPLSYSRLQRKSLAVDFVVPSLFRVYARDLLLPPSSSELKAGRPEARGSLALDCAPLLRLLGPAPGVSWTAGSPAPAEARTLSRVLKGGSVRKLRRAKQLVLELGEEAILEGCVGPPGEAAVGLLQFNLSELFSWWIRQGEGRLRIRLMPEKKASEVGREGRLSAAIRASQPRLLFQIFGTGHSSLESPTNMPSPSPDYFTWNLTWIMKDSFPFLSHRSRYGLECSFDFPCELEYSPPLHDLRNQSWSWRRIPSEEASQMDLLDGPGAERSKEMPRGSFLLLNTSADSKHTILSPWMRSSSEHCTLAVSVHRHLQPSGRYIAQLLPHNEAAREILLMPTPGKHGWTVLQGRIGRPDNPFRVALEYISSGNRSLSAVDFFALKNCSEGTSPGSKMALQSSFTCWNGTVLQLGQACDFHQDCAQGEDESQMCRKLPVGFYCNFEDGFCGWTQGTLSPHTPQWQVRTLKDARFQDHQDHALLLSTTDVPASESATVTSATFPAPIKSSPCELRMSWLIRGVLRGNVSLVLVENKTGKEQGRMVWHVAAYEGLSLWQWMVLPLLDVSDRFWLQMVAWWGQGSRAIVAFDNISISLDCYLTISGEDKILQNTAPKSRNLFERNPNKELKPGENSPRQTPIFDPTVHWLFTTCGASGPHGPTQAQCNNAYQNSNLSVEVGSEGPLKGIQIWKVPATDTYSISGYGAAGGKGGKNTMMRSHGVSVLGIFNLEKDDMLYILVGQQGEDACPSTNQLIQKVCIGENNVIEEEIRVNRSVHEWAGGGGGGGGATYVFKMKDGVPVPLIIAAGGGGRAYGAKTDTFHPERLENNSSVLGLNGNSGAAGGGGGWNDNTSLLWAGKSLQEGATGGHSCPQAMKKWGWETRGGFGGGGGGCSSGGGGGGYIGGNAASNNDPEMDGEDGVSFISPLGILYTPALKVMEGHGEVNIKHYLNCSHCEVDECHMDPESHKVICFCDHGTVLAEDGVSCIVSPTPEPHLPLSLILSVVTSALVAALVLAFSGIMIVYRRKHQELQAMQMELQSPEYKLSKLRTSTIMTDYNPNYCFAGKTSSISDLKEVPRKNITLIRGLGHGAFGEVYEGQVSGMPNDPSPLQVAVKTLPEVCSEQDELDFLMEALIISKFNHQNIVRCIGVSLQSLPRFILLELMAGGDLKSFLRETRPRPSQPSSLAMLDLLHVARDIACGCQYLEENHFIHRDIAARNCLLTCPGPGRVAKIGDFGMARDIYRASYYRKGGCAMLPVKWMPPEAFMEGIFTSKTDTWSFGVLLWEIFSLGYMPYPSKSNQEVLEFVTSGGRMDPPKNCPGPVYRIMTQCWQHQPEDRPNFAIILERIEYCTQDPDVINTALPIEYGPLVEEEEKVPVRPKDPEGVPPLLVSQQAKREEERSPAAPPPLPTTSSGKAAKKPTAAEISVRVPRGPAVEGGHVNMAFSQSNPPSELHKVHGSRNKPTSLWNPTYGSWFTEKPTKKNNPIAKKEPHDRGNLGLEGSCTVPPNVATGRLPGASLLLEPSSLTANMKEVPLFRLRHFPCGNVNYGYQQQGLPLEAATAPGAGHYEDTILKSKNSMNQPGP
Ba/F3(EGFR^L858R/T790M/C797S) cells, sequence (P00533 whole entry T790M/C797S/L858R): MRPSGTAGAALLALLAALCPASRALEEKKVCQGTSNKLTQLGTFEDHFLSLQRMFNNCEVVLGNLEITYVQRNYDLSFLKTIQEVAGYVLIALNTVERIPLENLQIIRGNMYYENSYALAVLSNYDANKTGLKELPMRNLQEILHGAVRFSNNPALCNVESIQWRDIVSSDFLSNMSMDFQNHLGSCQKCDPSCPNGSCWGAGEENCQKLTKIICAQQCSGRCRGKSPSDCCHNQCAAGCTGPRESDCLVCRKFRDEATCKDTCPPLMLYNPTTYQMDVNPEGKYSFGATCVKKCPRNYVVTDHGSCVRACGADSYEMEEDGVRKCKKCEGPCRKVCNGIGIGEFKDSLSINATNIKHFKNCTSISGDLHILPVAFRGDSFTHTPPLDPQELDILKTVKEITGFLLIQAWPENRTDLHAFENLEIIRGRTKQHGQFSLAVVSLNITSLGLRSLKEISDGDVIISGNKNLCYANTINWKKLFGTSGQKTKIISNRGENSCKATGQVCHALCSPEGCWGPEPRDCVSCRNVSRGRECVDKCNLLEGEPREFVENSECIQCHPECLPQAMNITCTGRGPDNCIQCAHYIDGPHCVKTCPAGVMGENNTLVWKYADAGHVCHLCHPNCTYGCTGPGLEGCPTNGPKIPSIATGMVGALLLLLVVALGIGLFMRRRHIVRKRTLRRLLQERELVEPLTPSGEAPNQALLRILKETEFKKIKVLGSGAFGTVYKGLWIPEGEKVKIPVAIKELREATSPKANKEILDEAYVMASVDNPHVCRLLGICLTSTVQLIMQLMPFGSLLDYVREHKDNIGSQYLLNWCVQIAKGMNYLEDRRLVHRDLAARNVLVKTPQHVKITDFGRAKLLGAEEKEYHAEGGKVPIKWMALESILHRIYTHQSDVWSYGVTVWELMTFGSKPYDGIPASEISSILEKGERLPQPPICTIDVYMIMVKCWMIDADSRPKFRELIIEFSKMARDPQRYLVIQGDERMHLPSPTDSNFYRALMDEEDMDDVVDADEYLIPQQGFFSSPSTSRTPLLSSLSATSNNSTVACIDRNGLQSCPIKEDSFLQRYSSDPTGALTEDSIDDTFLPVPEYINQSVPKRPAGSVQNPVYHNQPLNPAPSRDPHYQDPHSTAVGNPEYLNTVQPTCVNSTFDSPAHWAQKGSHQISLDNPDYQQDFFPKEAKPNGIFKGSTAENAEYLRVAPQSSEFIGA
Ba/F3(EGFR^Del19/T790M/C797S) cells, sequence (P00533 with tags, fused parts or gaps DEL746-750/T790M/C797S): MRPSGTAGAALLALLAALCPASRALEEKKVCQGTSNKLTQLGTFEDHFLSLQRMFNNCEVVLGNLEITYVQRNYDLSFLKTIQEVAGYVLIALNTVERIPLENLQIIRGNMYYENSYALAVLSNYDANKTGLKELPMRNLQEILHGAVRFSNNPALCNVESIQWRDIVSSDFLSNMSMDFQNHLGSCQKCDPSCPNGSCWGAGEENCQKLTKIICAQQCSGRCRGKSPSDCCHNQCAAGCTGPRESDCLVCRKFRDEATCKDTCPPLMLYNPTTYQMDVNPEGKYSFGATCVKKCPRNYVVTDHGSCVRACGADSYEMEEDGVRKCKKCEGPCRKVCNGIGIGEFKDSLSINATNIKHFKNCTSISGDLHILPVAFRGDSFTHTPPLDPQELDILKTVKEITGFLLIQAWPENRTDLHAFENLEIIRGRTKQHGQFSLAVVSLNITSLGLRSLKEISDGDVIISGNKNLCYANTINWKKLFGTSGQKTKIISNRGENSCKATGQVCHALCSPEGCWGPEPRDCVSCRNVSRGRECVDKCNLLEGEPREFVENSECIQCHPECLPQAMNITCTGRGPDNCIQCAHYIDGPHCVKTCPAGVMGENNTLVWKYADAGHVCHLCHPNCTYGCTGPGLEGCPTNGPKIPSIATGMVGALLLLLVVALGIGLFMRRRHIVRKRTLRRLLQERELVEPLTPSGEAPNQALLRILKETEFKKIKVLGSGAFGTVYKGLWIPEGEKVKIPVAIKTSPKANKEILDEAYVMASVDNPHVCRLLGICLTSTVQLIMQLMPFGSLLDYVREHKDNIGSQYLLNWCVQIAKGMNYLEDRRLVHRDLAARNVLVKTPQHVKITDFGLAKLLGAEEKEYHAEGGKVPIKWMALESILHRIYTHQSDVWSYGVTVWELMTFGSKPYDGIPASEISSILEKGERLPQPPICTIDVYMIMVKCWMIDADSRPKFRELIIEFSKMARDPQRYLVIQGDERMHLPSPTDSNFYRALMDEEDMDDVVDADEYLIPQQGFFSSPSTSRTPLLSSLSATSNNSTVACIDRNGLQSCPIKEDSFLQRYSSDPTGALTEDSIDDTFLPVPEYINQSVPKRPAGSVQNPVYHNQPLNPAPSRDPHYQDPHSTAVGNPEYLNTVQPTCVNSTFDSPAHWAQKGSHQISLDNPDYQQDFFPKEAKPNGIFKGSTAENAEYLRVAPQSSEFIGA

As for `COc1cc(N2CCC3(CCN(CCCCCCCOc4cccc5c4C(=O)N(C4CCC(=O)NC4=O)C5=O)CC3)CC2)c(C)cc1Nc1ncc(Br)c(Nc2ccc3nccnc3c2P(C)(C)=O)n1` (stereo not shown) [Compound C47, 4-((7-(9-(4-((5-bromo-4-((5-(dimethylphosphoryl)quinoxalin-6-yl)amino)pyrimidin-2-yl)amino)-5-methoxy-2-methylphenyl)-3,9-diazaspiro[5.5]undecan-3-yl)heptyl)oxy)-2-(2,6-dioxopiperidin-3-yl)isoindoline-1,3-dione], the GI50 (in assay [1]; in assay [2]; at Ba/F3(EML4-ALK) cells) was 101 to 200 nM each time.
`COc1cc(N2CCC(N3CCN(CCCCCCCOc4cccc5c4C(=O)N(C4CCC(=O)NC4=O)C5=O)CC3)CC2)c(C)cc1Nc1ncc(Br)c(Nc2ccc3nccnc3c2P(C)(C)=O)n1` (stereo not shown) [Compound C158, 4-((7-(4-(1-(4-((5-bromo-4-((5-(dimethylphosphoryl)quinoxalin-6-yl)amino)pyrimidin-2-yl)amino)-5-methoxy-2-methylphenyl)piperidin-4-yl)piperazin-1-yl)heptyl)oxy)-2-(2,6-dioxopiperidin-3-yl)isoindoline-1,3-dione]: the figures for the GI50 (in assay [1]; in assay [2]; on Ba/F3(EML4-ALK) cells) were 1 to 100 nM, 101 to 200 nM and 201 to 300 nM, respectively.
As for `COc1cc(N2CCC(N3CCN(CCCCCCCC#Cc4cccc5c4CN(C4CCC(=O)NC4=O)C5=O)CC3)CC2)c(C)cc1Nc1ncc(Br)c(Nc2ccc3nccnc3c2P(C)(C)=O)n1` (stereo not shown) [Compound C183, 3-(4-(9-(4-(1-(4-((5-bromo-4-((5-(dimethylphosphoryl)quinoxalin-6-yl)amino)pyrimidin-2-yl)amino)-5-methoxy-2-methylphenyl)piperidin-4-yl)piperazin-1-yl)non-1-yn-1-yl)-1-oxoisoindolin-2-yl)piperidine-2,6-dione], the GI50 (in assay [1]; in assay [2]; on Ba/F3(EML4-ALK) cells) was 1 to 100 nM each time.
Turning to `COc1cc(N2CCC(N3CCN(CCCCC#Cc4cccc5c4CN(C4CCC(=O)NC4=O)C5=O)CC3)CC2)c(C)cc1Nc1ncc(Br)c(Nc2ccc3nccnc3c2P(C)(C)=O)n1` (stereo not shown) [Compound C186, 3-(4-(6-(4-(1-(4-((5-bromo-4-((5-(dimethylphosphoryl)quinoxalin-6-yl)amino)pyrimidin-2-yl)amino)-5-methoxy-2-methylphenyl)piperidin-4-yl)piperazin-1-yl)hex-1-yn-1-yl)-1-oxoisoindolin-2-yl)piperidine-2,6-dione], the GI50 (in assay [1]; at Ba/F3(EML4-ALK) cells) was 1 to 100 nM in each case.
As to `COc1cc(N2CCC(N3CCN(CCCCCCCCC#Cc4cccc5c4CN(C4CCC(=O)NC4=O)C5=O)CC3)CC2)c(C)cc1Nc1ncc(Br)c(Nc2ccc3nccnc3c2P(C)(C)=O)n1` (stereo not shown) [Compound C188, 3-(4-(10-(4-(1-(4-((5-bromo-4-((5-(dimethylphosphoryl)quinoxalin-6-yl)amino)pyrimidin-2-yl)amino)-5-methoxy-2-methylphenyl)piperidin-4-yl)piperazin-1-yl)dec-1-yn-1-yl)-1-oxoisoindolin-2-yl)piperidine-2,6-dione], the GI50 is 1 to 100 nM in assay [1] and greater than 300 nM at Ba/F3(EML4-ALK) cells.
On the same counts, the results for `COc1cc(N2CCC3(CCN(CCCCCCCCC#Cc4cccc5c4CN(C4CCC(=O)NC4=O)C5=O)CC3)CC2)c(C)cc1Nc1ncc(Br)c(Nc2ccc3nccnc3c2P(C)(C)=O)n1` (stereo not shown) [Compound C189, 3-(4-(10-(9-(4-((5-bromo-4-((5-(dimethylphosphoryl)quinoxalin-6-yl)amino)pyrimidin-2-yl)amino)-5-methoxy-2-methylphenyl)-3,9-diazaspiro[5.5]undecan-3-yl)dec-1-yn-1-yl)-1-oxoisoindolin-2-yl)piperidine-2,6-dione] are 1 to 100 nM and 101 to 200 nM.
In the case of `COc1cc(N2CCC3(CCN(CCCCCC#Cc4ccc5c(c4)CN(C4CCC(=O)NC4=O)C5=O)CC3)CC2)c(C)cc1Nc1ncc(Br)c(Nc2ccc3nccnc3c2P(C)(C)=O)n1` (stereo not shown) [Compound C191, 3-(5-(7-(9-(4-((5-bromo-4-((5-(dimethylphosphoryl)quinoxalin-6-yl)amino)pyrimidin-2-yl)amino)-5-methoxy-2-methylphenyl)-3,9-diazaspiro[5.5]undecan-3-yl)hept-1-yn-1-yl)-1-oxoisoindolin-2-yl)piperidine-2,6-dione], the results for the GI50 (in assay [1]; at Ba/F3(EML4-ALK) cells) were 1 to 100 nM and 101 to 200 nM, respectively.
`COc1cc(N2CCC(N3CCN(CCCCCCCC#Cc4ccc5c(c4)CN(C4CCC(=O)NC4=O)C5=O)CC3)CC2)ccc1Nc1ncc(Cl)c(Nc2ccccc2P(C)(C)=O)n1` (stereo not shown) [Compound C195, 3-(5-(9-(4-(1-(4-((5-chloro-4-((2-(dimethylphosphoryl)phenyl)amino)pyrimidin-2-yl)amino)-3-methoxyphenyl)piperidin-4-yl)piperazin-1-yl)non-1-yn-1-yl)-1-oxoisoindolin-2-yl)piperidine-2,6-dione]: the GI50 (in assay [1]; at Ba/F3(EML4-ALK) cells) was 1 to 100 nM in each case.
With `COc1cc(N2CCC(N3CCN(CCCCCCCCC#Cc4ccc5c(c4)CN(C4CCC(=O)NC4=O)C5=O)CC3)CC2)ccc1Nc1ncc(Cl)c(Nc2ccccc2P(C)(C)=O)n1` (stereo not shown) [Compound C196, 3-(5-(10-(4-(1-(4-((5-chloro-4-((2-(dimethylphosphoryl)phenyl)amino)pyrimidin-2-yl)amino)-3-methoxyphenyl)piperidin-4-yl)piperazin-1-yl)dec-1-yn-1-yl)-1-oxoisoindolin-2-yl)piperidine-2,6-dione], the GI50 (in assay [1]; on Ba/F3(EML4-ALK) cells) was 1 to 100 nM each time.
As to `COc1cc(N2CCC3(CCN(CCCCCCCOc4cccc5c4CN(C4CCC(=O)NC4=O)C5=O)CC3)CC2)c(C)cc1Nc1ncc(Br)c(Nc2ccc3nccnc3c2P(C)(C)=O)n1` (stereo not shown) [Compound C211, 3-(4-((7-(9-(4-((5-bromo-4-((5-(dimethylphosphoryl)quinoxalin-6-yl)amino)pyrimidin-2-yl)amino)-5-methoxy-2-methylphenyl)-3,9-diazaspiro[5.5]undecan-3-yl)heptyl)oxy)-1-oxoisoindolin-2-yl)piperidine-2,6-dione], the GI50 (in assay [1]; at Ba/F3(EML4-ALK) cells) was 1 to 100 nM in each case.
Consider `COc1cc(N2CCC(N3CCN(CCCCCCCOc4cccc5c4CN(C4CCC(=O)NC4=O)C5=O)CC3)CC2)c(C)cc1Nc1ncc(Br)c(Nc2ccc3nccnc3c2P(C)(C)=O)n1` (stereo not shown) [Compound C214, 3-(4-((7-(4-(1-(4-((5-bromo-4-((5-(dimethylphosphoryl)quinoxalin-6-yl)amino)pyrimidin-2-yl)amino)-5-methoxy-2-methylphenyl)piperidin-4-yl)piperazin-1-yl)heptyl)oxy)-1-oxoisoindolin-2-yl)piperidine-2,6-dione], for which the GI50 (in assay [1]; in assay [2]; on Ba/F3(EML4-ALK) cells) was 1 to 100 nM in each case.
In the case of `COc1cc(N2CCC3(CCN(CCOCC#Cc4cc(F)cc5c4CN(C4CCC(=O)NC4=O)C5=O)CC3)CC2)c(C)cc1Nc1ncc(Br)c(Nc2ccc3nccnc3c2P(C)(C)=O)n1` (stereo not shown) [Compound C310, 3-(4-(3-(2-(9-(4-((5-bromo-4-((5-(dimethylphosphoryl)quinoxalin-6-yl)amino)pyrimidin-2-yl)amino)-5-methoxy-2-methylphenyl)-3,9-diazaspiro[5.5]undecan-3-yl)ethoxy)prop-1-yn-1-yl)-6-fluoro-1-oxoisoindolin-2-yl)piperidine-2,6-dione], the GI50 (in assay [1]; at Ba/F3(EML4-ALK) cells) was 1 to 100 nM in each case.
